Values joined by “and” are separate entries in the source; they are usually repeats but may differ in a detail not shown here. Equal values may be shown once.

The results in this text go back to the supplement of paper PMC4862054.

What all share (test): normalised viability (% of control), CellTiter-Blue; higher = more viable cells (about 100 = DMSO control)
Common to all, as to details: incubation time: 72 h
(The colour change of resazurin is a common sign of viable cells or microbes.)

Experiment [1] has as its system CAL-148. Here is the method: (§1)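 DSRT, CellTiter-Blue viability, 72 h incubation. Signal is normalised to DMSO and benzethonium chloride controls. Value is the normalised response at dose 9.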
For experiment [2], the system named is CAL-51. Here is the method: as §1
For experiment [3], the system named is CAL-85-1. Here is the method: as §1
Experiment [4] has as its system DU-4475. The method, then:
as §1

The test system of experiment [5] is HDQ-P1. Here is the method:
as §1

Experiment [6] has as its system MDA-MB-453. Here is the method: as §1
Experiment [7] deals with CAL-148. The method, then:
(§2)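 DSRT, CellTiter-Blue viability, 72 h incubation. Signal is normalised to DMSO and benzethonium chloride controls. Value is the normalised response at dose 8.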
This is another data set of the same source.

In experiment [8] the test system is CAL-51. The method, then:
as §2
This is another data set of the same source.

The subject of experiment [9] is CAL-85-1. Here is the method: as §2
This is another data set of the same source.

In experiment [10] the test system is DU-4475. Here is the method:
as §2
The source holds these as a separate data set.

The subject of experiment [11] is HDQ-P1. Here is the method: as §2
The source holds these as a separate data set.

In experiment [12] the test system is MDA-MB-453. The method, then: as §2
This is another data set of the same source.

On to `C[C@@H](CN1CC(=O)NC(=O)C1)N1CC(=O)NC(=O)C1` [Dexrazoxane] (10000 nM), for which the normalised viability in the experiment on CAL-148 [1] came to 96.2%; in the experiment on CAL-51 [2], 92.9%; in the experiment with CAL-85-1 [3], 93.7%; in the experiment on DU-4475 [4] it was 102%; in the experiment on HDQ-P1 [5] it was 85.2%; in the experiment on MDA-MB-453 [6] it was 100%.

Take `COc1cc2c(Oc3ccc(NC(=O)C4(C(=O)Nc5ccc(F)cc5)CC4)cc3F)ccnc2cc1OCCCN1CCOCC1` [Foretinib] (300 nM): the normalised viability in the experiment on CAL-148 [7] came out at 91.6%; in the experiment on CAL-51 [8], 68.5%; in the experiment with CAL-85-1 [9], 84%; in the experiment with DU-4475 [10] it was 98.8%; in the experiment on HDQ-P1 [11], 60.9%; with MDA-MB-453 [12], 75.4%.

In the case of `NC(=O)NO` [Hydroxyurea] (30000 nM), the normalised viability with CAL-148 [7] came to 103%; in the experiment with CAL-51 [8], 111%; in the experiment with CAL-85-1 [9], 89.1%; with DU-4475 [10], 104%; in the experiment with HDQ-P1 [11], 104%; in the experiment with MDA-MB-453 [12], 93.1%.

On to `O=NN(CCCl)C(=O)NC1CCCCC1` [Lomustine] (3000 nM), for which the normalised viability with CAL-148 [7] stood at 103%; with CAL-51 [8], 113%; with CAL-85-1 [9], 93.8%; in the experiment on DU-4475 [10], 89.1%; with HDQ-P1 [11], 99.7%; in the experiment on MDA-MB-453 [12], 112%.

Regarding `O=C(O)CC[C@H]1CC[C@@](c2cc(F)ccc2F)(S(=O)(=O)c2ccc(Cl)cc2)CC1` [MK-0752] (300 nM), the normalised viability amounted to 95.3% in the experiment on CAL-148 [7]; 119% with CAL-51 [8]; 94.6% in the experiment on CAL-85-1 [9]; 115% in the experiment with DU-4475 [10]; 114% with HDQ-P1 [11]; 114% with MDA-MB-453 [12].

Regarding `NC1(c2ccc(-c3nc4ccn5c(=O)[nH]nc5c4cc3-c3ccccc3)cc2)CCC1` [MK-2206] (300 nM), the normalised viability in the experiment on CAL-148 [7] is 91.3%; in the experiment with CAL-51 [8], 98.8%; in the experiment with CAL-85-1 [9], 82.9%; in the experiment on DU-4475 [10], 100%; in the experiment on HDQ-P1 [11], 77.5%; in the experiment on MDA-MB-453 [12], 73%.

With `NC(=O)c1cccc2cn(-c3ccc([C@@H]4CCCNC4)cc3)nc12` [MK-4827] (3000 nM), the normalised viability in the experiment on CAL-148 [7] came out at 73.5%; in the experiment with CAL-51 [8], 48.8%; in the experiment on CAL-85-1 [9], 85.8%; in the experiment with DU-4475 [10], 58.6%; in the experiment on HDQ-P1 [11], 91.3%; in the experiment with MDA-MB-453 [12] it was 101%.

For `N[C@@H](Cc1ccc(N(CCCl)CCCl)cc1)C(=O)O` [Melphalan] (297 nM), the normalised viability in the experiment with CAL-148 [7] came to 100%; in the experiment with CAL-51 [8] it was 106%; in the experiment with CAL-85-1 [9], 97.9%; in the experiment with DU-4475 [10] it was 88.9%; in the experiment with HDQ-P1 [11], 100%; in the experiment with MDA-MB-453 [12] it was 110%.

In the case of `N[C@@H](Cc1ccc(N(CCCl)CCCl)cc1)C(=O)O` [Melphalan] (990 nM), the normalised viability came out at 74.2% in the experiment on CAL-148 [1]; 68.8% in the experiment on CAL-51 [2]; 72.1% with CAL-85-1 [3]; 62.4% with DU-4475 [4]; 94% in the experiment with HDQ-P1 [5]; 95.8% with MDA-MB-453 [6].

Take `Cc1c(C(=O)Nc2ccc(N3C[C@@H](C)O[C@@H](C)C3)nc2)cccc1-c1ccc(OC(F)(F)F)cc1` [NVP-LDE225] (3000 nM): the normalised viability in the experiment with CAL-148 [7] was 107%; with CAL-51 [8], 101%; in the experiment with CAL-85-1 [9], 109%; in the experiment on DU-4475 [10], 121%; with HDQ-P1 [11], 84.1%; in the experiment with MDA-MB-453 [12], 75.2%.

Take `Cc1c(C(=O)Nc2ccc(N3C[C@@H](C)O[C@@H](C)C3)nc2)cccc1-c1ccc(OC(F)(F)F)cc1` [NVP-LDE225] (10000 nM): the normalised viability in the experiment with CAL-148 [1] amounted to 121%; in the experiment on CAL-51 [2] it was 92.5%; in the experiment on CAL-85-1 [3], 98.4%; in the experiment on DU-4475 [4], 110%; in the experiment on HDQ-P1 [5], 127%; with MDA-MB-453 [6], 82.8%.

Consider `O=C(c1cc(Cc2n[nH]c(=O)c3ccccc23)ccc1F)N1CCN(C(=O)C2CC2)CC1` [Olaparib] (3000 nM), for which the normalised viability in the experiment with CAL-148 [7] was determined as 64.2%; in the experiment on CAL-51 [8], 68.9%; with CAL-85-1 [9], 71.4%; in the experiment on DU-4475 [10] it was 72.4%; in the experiment on HDQ-P1 [11], 100%; with MDA-MB-453 [12], 93%.

`CO[C@H](C(=O)[C@@H](O)[C@@H](C)O)[C@@H]1Cc2cc3cc(O[C@H]4C[C@@H](O[C@@H]5C[C@@H](O)[C@H](O)[C@@H](C)O5)[C@H](O)[C@@H](C)O4)c(C)c(O)c3c(O)c2C(=O)[C@H]1O[C@H]1C[C@@H](O[C@@H]2C[C@@H](O)[C@@H](O[C@@H]3C[C@](C)(O)[C@H](O)[C@@H](C)O3)[C@@H](C)O2)[C@H](O)[C@@H](C)O1` [Plicamycin] (3000 nM): the normalised viability with CAL-148 [7] is 5.24% and 3.76%; in the experiment with CAL-51 [8] it was 3.09% and 4.26%; with CAL-85-1 [9], 5.82% and 5.38%; in the experiment with DU-4475 [10] it was 2.08% and 0.69%; in the experiment on HDQ-P1 [11] it was 23.8% and 15.9%; in the experiment on MDA-MB-453 [12] it was 7% and 7.5%.

As to `C[C@]12C=CC(=O)C=C1CC[C@@H]1[C@@H]2C(=O)C[C@@]2(C)[C@H]1CC[C@]2(O)C(=O)CO` [Prednisone] (3000 nM), the normalised viability worked out at 94.2% in the experiment on CAL-148 [7]; 102% in the experiment with CAL-51 [8]; 99.3% in the experiment on CAL-85-1 [9]; 104% with DU-4475 [10]; 120% in the experiment with HDQ-P1 [11]; 93.5% with MDA-MB-453 [12].

On to `CO[C@H]1C[C@@H]2CC[C@@H](C)[C@@](O)(O2)C(=O)C(=O)N2CCCC[C@H]2C(=O)O[C@H]([C@H](C)C[C@@H]2CC[C@@H](O)[C@H](OC)C2)CC(=O)[C@H](C)/C=C(\C)[C@@H](O)[C@@H](OC)C(=O)[C@H](C)C[C@H](C)/C=C/C=C/C=C/1C` [Sirolimus] (300 nM), for which the normalised viability amounted to 39.1% in the experiment with CAL-148 [7]; 31.1% in the experiment with CAL-51 [8]; 59.8% with CAL-85-1 [9]; 63.7% with DU-4475 [10]; 58.8% in the experiment on HDQ-P1 [11]; 31.6% in the experiment on MDA-MB-453 [12].

Consider `CO[C@H]1C[C@@H]2CC[C@@H](C)[C@@](O)(O2)C(=O)C(=O)N2CCCC[C@H]2C(=O)O[C@H]([C@H](C)C[C@@H]2CC[C@@H](O)[C@H](OC)C2)CC(=O)[C@H](C)/C=C(\C)[C@@H](O)[C@@H](OC)C(=O)[C@H](C)C[C@H](C)/C=C/C=C/C=C/1C` [Sirolimus] (1000 nM), for which the normalised viability turned out to be 44% in the experiment with CAL-148 [1]; 26.1% in the experiment on CAL-51 [2]; 59.3% in the experiment with CAL-85-1 [3]; 59.9% in the experiment on DU-4475 [4]; 70.3% with HDQ-P1 [5]; 25.3% in the experiment with MDA-MB-453 [6].

Consider `CN1CCN(c2nc(C3=C(c4c[nH]c5ccccc45)C(=O)NC3=O)c3ccccc3n2)CC1` [Sotrastaurin] (3000 nM), for which the normalised viability is 116% in the experiment with CAL-148 [7]; 97.3% with CAL-51 [8]; 141% with CAL-85-1 [9]; 95.9% with DU-4475 [10]; 126% with HDQ-P1 [11]; 93.8% in the experiment on MDA-MB-453 [12].

For the compound `CC/C(=C(\c1ccccc1)c1ccc(OCCN(C)C)cc1)c1ccccc1` [Tamoxifen] (3000 nM), the normalised viability was 117% in the experiment with CAL-148 [7]; 99.1% in the experiment with CAL-51 [8]; 102% with CAL-85-1 [9]; 106% in the experiment with DU-4475 [10]; 100% with HDQ-P1 [11]; 89.7% in the experiment with MDA-MB-453 [12].

For the compound `COc1cc2c(N3CCN(C(=O)Nc4ccc(OC(C)C)cc4)CC3)ncnc2cc1OCCCN1CCCCC1` [Tandutinib] (300 nM), the normalised viability with CAL-148 [7] was determined as 94.4%; in the experiment on CAL-51 [8] it was 115%; in the experiment on CAL-85-1 [9] it was 95.7%; in the experiment on DU-4475 [10], 109%; in the experiment with HDQ-P1 [11], 93.5%; in the experiment on MDA-MB-453 [12] it was 102%.

For `C[C@@H](C(=O)O)c1ccc(-c2ccccc2)c(F)c1` [Tarenflurbil] (3000 nM), the normalised viability is 94.4% in the experiment with CAL-148 [7]; 113% in the experiment on CAL-51 [8]; 88.8% in the experiment with CAL-85-1 [9]; 115% in the experiment on DU-4475 [10]; 93% in the experiment with HDQ-P1 [11]; 79.5% in the experiment on MDA-MB-453 [12].

For `Cn1nnc2c(C(N)=O)ncn2c1=O` [Temozolomide] (3000 nM), the normalised viability with CAL-148 [7] came out at 88.8%; with CAL-51 [8], 93.6%; in the experiment with CAL-85-1 [9], 97.3%; in the experiment with DU-4475 [10] it was 100%; in the experiment with HDQ-P1 [11] it was 103%; in the experiment on MDA-MB-453 [12], 104%.

In the case of `CC[C@@H]1C(=O)N(C)c2cnc(Nc3ccc(C(=O)N[C@H]4CC[C@H](N5CCN(CC6CC6)CC5)CC4)cc3OC)nc2N1C(C)C` [Volasertib] (300 nM), the normalised viability in the experiment on CAL-148 [7] was found to be 26.6%; with CAL-51 [8], 9.3%; in the experiment on CAL-85-1 [9] it was 64.6%; in the experiment on DU-4475 [10], 18.6%; in the experiment on HDQ-P1 [11] it was 59.4%; in the experiment on MDA-MB-453 [12], 34.3%.
